Series [1] in a line: Plasma concentrations after administration, LC-MS/MS. The following applies: mouse. Format: in vivo, BALB/c mice. As to the method:
Male BALB/c mice (8–10 weeks old) were purchased from Charles River Laboratory and were randomized for compound administration. Chemical compounds were dissolved in 0.1 ml of 0.5% (w/v) carboxymethycellulose (Sigma-Aldrich) plus 0.5% Tween 80 (Fisher Scientific) and administrated by oral gavage at the dosage of 50 mg/kg or 100 mg/kg. Mice were sacrificed and blood samples were collected immediately before (n = 5) and at 2 (n = 5), 4 (n = 5), 6 (n = 5) or 8 (n = 8) h after compound administration. Plasma samples were sent to the Pharmaceutical Development Center at MD Anderson Cancer Center for LC-MS/MS assay to determine compound concentrations.
Supplementary file pone.0181601.s001.tif: S1 Fig The serum concentrations of compound C9. The chemical compound was dissolved in 5% DMSO-0.5% Tween 80. BALB/c mice (8–10 weeks old) were randomized and administrated the vehicle (0.1 ml) or compound C9 dissolved in the vehicle (0.1 ml) by intraperitoneal (I.P.) injection at the dosage of 25, 50 or 100 mg/kg. Mice were sacrificed and blood samples were collected immediately before (0 h, n = 5) and at 2 (n = 5), 4 (n = 5), 6 (n = 5) and 8 (n = 5) h after compound administration. Plasma samples were sent to the Pharmaceutical Development Center at MD Anderson Cancer Center for LC-MS/MS assay to determine compound concentrations. (TIF) Click here for additional data file.

Series [2] has as its system CDK2 (Rb pT821) in A549 cells. Nature of the series: Western blot of Rb phosphorylation at T821. Format: cell-based. The conditions noted are these: 20 μM, 4 h. The text has this: (§1) The retinoblastoma protein (Rb) is phosphorylated by CKDs in cells.
(§2) (TIF) Click here for additional data file.
A general note: Immunoblotting shows a protein as a band on a membrane.

For another series, the system named is A549 cells. Nature of the series: Cell cycle distribution by flow cytometry. The class given is cell-based. The following applies: 20 μM, 2 days. How it is done: Supplementary file pone.0181601.s002.tif: S2 Fig Identified compounds arrested cell cycle at the G1 phase. A549 cells were infected with the lentivirus expressing non-target (NT) or PRMT5 shRNA as described previously by us. A549 cells were grown in the presence of DMSO or 20 μM of the compound C5, C9 or C11 for 2 days. A, PRMT5 protein levels in A549 cells. Whole cell lysates were prepared and submitted for Western blot analysis with anti-PRMT5 (top) or anti-actin (bottom) antibody. B, Cell cycle distributions. Cells were harvested, washed with phosphate-buffered saline (PBS) and fixed in 70% ethanol at 4 °C overnight. Cells were collected and stained with propidium iodide (PI). The cell-cycle distributions were determined by flow cytometry analysis (BD Accuri^TM C6 Flow Cyometer). (TIF) Click here for additional data file.

Series [3] has as its system CDK4/6 (Rb pS811) in A549 cells. Nature of the series: Western blot of Rb phosphorylation at S811. Format: cell-based. The conditions noted are these: 20 μM, 4 h.
Excerpt: as §1, §2

For series [4], the system named is histone H2A arginine methylation in lung tumor xenografts. Nature of the series: Western blot of histone symmetric dimethylarginine in lung tumors. The class given is in vivo, nude mice. The conditions noted are these: 100 mg/kg oral, 21 days, SYM10 antibody. As to the method: Histones were purified as reported previously. Briefly, cells (1–5 x 10^6) or lung tumors (10–100 mg) were lysated using a glass dounce in 1 ml of 1x Passive Lysis Buffer (Promega) and nuclear pellets were collected by centrifugation at 3,000 rpm for 5 min at 4 °C. The supernatant was discard and the pellets were washed with 1 ml of 1x Passive Lysis Buffer. Nuclear pellets were resuspended in 0.4 ml of the buffer (10 mM Trs-HCl, pH7.9, 0.2 mM EDTA, 1 mM DTT, 20% glycerol, 0.42 M KCl) and incubate for 30 min on ice, and centrifuged at 12,000 rpm for 10 min at 4 °C. The supernatant (histones extract) was transferred to a new tube and histones were precipitated by 20% trichloroacetic acid.
Protein extracts or histones (20 μg) were subjected to 10% or 15% sodium dodecyl sulfate-polyacrylamide gel electrophoresis, respectively then transferred to Immobilon-P membranes (Millipore). […] Immunoreactive proteins were detected using an enhanced chemiluminescence detection system (GE Healthcare) per the manufacturer’s instructions. Protein concentrations were determined using the Bradford protein assay reagent (Bio-Rad).
Fig 9 The compound C9a inhibited growth of lung tumor xenografts in nude mice. […] Histones were isolated from tumors and analyzed by SDS-PAGE stained with Commassie blue R250 (bottom) or by Western blot with anti-symmetric dimethyl arginine antibody (SYM10) (top). […]

Series [5] relates to PRMT5-target genes in A549 cells. Nature of the series: Real-time PCR of PRMT5-regulated genes. The conditions noted are these: 50 μM, 24 hrs. The class given is cell-based. As to the method:
We identified a set of genes whose expression was altered by silencing PRMT5 expression in lung cancer A549 cells. A549 cells were treated with C9a and EPZ015666 and expression of 6 identified PRMT5-regulated genes was analyzed. […] The future study would use genome-wide approach to determine genes whose expression is affected by PRMT5 inhibitors.
Supplementary file pone.0181601.s005.tif: S5 Fig PRMT5 inhibitors selectively affect PRMT5-target genes in lung cancer cells. RNAs were isolated from cells cultured in the presence of DMSO, EPZ015666 (Sigma-Aldrich) (50 μM), or C9a (50 μM) for 24 hrs and submitted to RT-RCR analysis of gene expression in cancer cell lines. Relative mRNA levels = mRNA in cells treated with PRMT5-inhibtor/mRNA in DMSo-treated cells. (TIF) Click here for additional data file.
(In qPCR the cycle at which signal appears reflects the starting amount.)

[6] abbreviates: single replicate, vs control, actin-normalised.

Each structure is given as a SMILES string. Values joined by “and” are separate entries in the source; they are usually repeats but may differ in a detail not shown here. Identical values can stand only once.

`COc1ccc(Nc2ncnc3c2cnn3Cc2ccc(C)cc2)cc1` [Compound C9] showed a plasma concentration reached in series [1] (intraperitoneal injection, 100 mg/kg) of 38 µM. In series [1] (oral gavage, 100 mg/kg), the maximal plasma concentration amounted to 5.8 µM. Further, the “Rb phosphorylation at the site T821 by CDK2” value in series [2] was “failed to inhibit”. The cell cycle effect entry in the series on A549 cells is listed as “arrested the cell cycle at the G1 phase”. The “Rb phosphorylation at the site S811 by CDK4/6” value in series [3] is “failed to inhibit”.
`CCn1c(=O)[nH]c2cc(C(=O)Nc3ccc(OC)cc3)ccc2c1=O` [Compound C5]: the cell cycle effect result in the series on A549 cells is recorded as “arrested the cell cycle at the G1 phase”.
With `Cn1cc(C(c2ccc(O)c(O)c2O)c2cn(C)c3ccccc23)c2ccccc21` [Compound C11], the cell cycle effect entry with A549 cells is “arrested the cell cycle at the G1 phase”.
Consider `Nc1cccc(Nc2ncnc3c2cnn3Cc2ccccc2)c1` [Compound C9a], for which the “oral drug availability compared to C9” value in series [1] (oral gavage) is “improved oral drug availability”. The “Rb phosphorylation at the site T821 by CDK2” value in series [2] is “failed to inhibit”. Moreover, in series [4], the “arginine methylation in histone H2A in lung tumors” value is recorded as “significantly inhibited”. In addition, in series [3], the “Rb phosphorylation at the site S811 by CDK4/6” value is recorded as “failed to inhibit”. Moreover, in series [5] (average), the “EXPRESSION FOLD CHANGE avg BTG2” value is recorded as 1.857, the “EXPRESSION FOLD CHANGE avg FGFR1” value is listed as 0.9076, the “EXPRESSION FOLD CHANGE avg FOXO3” value is reported as 1.441 and the “EXPRESSION FOLD CHANGE avg GLIPR1” value was 6.032. In series [5] (average), the “EXPRESSION FOLD CHANGE avg PTTG1” value came out at 1.0371 and the “EXPRESSION FOLD CHANGE avg TIGAR” value stood at 1.502. Further, in series [5] (setting [6]), the “EXPRESSION FOLD CHANGE BTG2” value was 1.889 and 1.826 and 0.7777; the “EXPRESSION FOLD CHANGE FGFR1” value was 0.9289 and 0.7185 and 1.075; the “EXPRESSION FOLD CHANGE FOXO3” value is 1.695 and 1.429 and 1.452; the “EXPRESSION FOLD CHANGE GLIPR1” value was 5.777 and 6.772 and 5.548. Also, in series [5] (setting [6]), the “EXPRESSION FOLD CHANGE PTTG1” value is 0.9706 and 1.104 and 1.215; the “EXPRESSION FOLD CHANGE TIGAR” value was 1.627 and 1.032 and 1.378.

The values are drawn from PMC5555576, “Selective small-chemical inhibitors of protein arginine methyltransferase 5 with anti-lung cancer activity” (PLoS ONE, 2017).
